{"source": "patent US20240246942A1", "about": "“KINASE INHIBITORS FOR THE TREATMENT OF NEURODEGENERATIVE DISEASES” (priority 2020, published 2024)", "assay_in_all_cases": "biochemical", "key": {"[1]": {"target": "T1, panel of 374 wild-type kinases (Homo sapiens, UniProt Q9UKE5)", "T1 construct": "purchased Reaction Biology Corporation", "conditions": "read-out: % Enzyme Activity (relative to DMSO controls), kinase TNIK"}, "[2]": {"target": "T2, panel of 374 wild-type kinases (Homo sapiens, UniProt O96017)", "T2 construct": "purchased Reaction Biology Corporation", "conditions": "read-out: % Enzyme Activity (relative to DMSO controls), CHK2"}, "[3]": {"target": "T3, panel of 374 wild-type kinases (Homo sapiens, UniProt P36896)", "T3 construct": "purchased Reaction Biology Corporation", "T3 sequence (P36896 24-505)": "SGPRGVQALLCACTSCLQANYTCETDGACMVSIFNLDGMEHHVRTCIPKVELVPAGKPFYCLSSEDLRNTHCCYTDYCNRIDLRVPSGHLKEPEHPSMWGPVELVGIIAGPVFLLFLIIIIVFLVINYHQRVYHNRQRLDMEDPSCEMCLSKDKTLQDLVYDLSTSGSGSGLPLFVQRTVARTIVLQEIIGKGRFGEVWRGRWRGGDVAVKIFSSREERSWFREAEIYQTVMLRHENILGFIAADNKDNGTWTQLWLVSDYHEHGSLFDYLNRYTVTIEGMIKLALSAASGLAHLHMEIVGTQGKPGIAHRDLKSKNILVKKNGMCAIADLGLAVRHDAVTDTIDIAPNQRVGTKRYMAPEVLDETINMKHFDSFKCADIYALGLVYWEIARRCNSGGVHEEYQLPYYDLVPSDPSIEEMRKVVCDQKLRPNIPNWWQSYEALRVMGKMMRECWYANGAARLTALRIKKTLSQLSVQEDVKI", "conditions": "read-out: % Enzyme Activity (relative to DMSO controls), ALK4/ACVR1B"}, "[4]": {"target": "T4, panel of 374 wild-type kinases (Homo sapiens, UniProt Q8N752)", "T4 construct": "purchased Reaction Biology Corporation", "T4 sequence (Q8N752 1-337)": "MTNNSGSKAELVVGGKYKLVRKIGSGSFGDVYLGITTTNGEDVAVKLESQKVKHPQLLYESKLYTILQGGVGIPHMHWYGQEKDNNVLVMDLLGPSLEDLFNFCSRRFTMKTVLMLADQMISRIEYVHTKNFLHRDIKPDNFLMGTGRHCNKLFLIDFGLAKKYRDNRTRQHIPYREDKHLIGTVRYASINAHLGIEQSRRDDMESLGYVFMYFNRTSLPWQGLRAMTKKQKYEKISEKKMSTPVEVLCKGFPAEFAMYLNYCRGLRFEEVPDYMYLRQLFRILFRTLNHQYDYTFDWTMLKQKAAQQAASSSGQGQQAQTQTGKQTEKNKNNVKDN", "conditions": "read-out: % Enzyme Activity (relative to DMSO controls), CK1a1L"}, "[5]": {"target": "T5, panel of 374 wild-type kinases (Homo sapiens, UniProt P15056)", "T5 construct": "purchased Reaction Biology Corporation", "T5 sequence (P15056 whole entry)": "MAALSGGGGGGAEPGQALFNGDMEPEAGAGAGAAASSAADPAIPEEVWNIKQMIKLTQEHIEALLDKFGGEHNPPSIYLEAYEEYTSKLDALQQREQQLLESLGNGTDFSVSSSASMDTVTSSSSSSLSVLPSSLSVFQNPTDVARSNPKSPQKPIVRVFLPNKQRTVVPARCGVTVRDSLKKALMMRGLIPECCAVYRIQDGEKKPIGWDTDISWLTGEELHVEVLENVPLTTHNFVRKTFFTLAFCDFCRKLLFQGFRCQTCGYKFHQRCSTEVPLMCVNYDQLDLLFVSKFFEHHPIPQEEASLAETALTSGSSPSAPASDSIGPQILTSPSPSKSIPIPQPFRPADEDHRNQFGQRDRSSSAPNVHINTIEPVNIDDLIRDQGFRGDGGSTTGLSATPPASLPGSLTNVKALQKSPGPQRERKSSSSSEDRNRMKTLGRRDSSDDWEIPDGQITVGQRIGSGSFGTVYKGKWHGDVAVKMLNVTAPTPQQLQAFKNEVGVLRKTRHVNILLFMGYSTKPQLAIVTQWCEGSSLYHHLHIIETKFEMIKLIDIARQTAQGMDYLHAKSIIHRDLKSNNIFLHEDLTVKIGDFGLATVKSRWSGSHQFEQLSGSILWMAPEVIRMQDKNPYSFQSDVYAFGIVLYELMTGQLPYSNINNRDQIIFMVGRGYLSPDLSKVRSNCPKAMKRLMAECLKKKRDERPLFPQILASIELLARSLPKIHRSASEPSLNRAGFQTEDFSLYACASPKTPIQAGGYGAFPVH", "conditions": "read-out: % Enzyme Activity (relative to DMSO controls), BRAF"}, "[6]": {"target": "T6, panel of 374 wild-type kinases (Homo sapiens, UniProt Q5TCY1)", "T6 construct": "purchased Reaction Biology Corporation", "T6 sequence (Q5TCY1 whole entry)": "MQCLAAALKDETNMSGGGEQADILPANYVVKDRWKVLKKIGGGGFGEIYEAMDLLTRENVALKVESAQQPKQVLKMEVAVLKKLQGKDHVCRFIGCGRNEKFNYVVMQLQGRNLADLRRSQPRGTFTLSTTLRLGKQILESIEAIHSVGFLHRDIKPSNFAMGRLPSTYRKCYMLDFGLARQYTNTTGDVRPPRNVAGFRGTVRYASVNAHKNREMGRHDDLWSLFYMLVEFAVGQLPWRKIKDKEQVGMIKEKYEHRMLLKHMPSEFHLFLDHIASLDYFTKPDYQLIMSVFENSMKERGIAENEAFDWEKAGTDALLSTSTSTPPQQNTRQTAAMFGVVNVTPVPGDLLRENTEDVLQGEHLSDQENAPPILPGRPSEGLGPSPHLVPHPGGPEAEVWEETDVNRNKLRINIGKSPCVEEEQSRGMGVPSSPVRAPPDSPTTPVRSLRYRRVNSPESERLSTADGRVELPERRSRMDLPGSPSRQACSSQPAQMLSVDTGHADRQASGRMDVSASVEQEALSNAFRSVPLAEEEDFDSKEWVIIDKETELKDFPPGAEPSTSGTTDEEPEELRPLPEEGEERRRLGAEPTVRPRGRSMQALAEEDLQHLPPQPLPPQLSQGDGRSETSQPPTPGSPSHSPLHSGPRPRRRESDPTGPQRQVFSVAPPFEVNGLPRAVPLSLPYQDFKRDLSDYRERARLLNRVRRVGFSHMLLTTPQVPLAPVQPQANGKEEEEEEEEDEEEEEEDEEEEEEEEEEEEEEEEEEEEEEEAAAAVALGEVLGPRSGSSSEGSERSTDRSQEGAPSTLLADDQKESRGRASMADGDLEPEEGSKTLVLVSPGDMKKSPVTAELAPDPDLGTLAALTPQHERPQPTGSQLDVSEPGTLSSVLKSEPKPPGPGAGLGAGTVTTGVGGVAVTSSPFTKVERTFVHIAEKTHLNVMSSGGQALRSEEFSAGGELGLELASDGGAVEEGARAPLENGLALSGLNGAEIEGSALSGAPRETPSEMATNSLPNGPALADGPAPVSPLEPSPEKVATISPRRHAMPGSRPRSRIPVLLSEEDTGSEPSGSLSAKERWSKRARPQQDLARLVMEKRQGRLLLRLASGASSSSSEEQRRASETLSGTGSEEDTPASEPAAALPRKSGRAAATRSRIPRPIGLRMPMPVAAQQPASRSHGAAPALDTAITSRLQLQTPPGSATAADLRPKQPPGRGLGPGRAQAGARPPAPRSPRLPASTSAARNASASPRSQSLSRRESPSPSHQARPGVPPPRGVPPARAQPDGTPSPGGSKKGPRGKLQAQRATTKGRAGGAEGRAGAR", "conditions": "kinase TTBK1, read-out: % Enzyme Activity (relative to DMSO controls)"}, "[7]": {"target": "T7, panel of 374 wild-type kinases (Homo sapiens, UniProt Q9UEW8)", "T7 construct": "purchased Reaction Biology Corporation", "conditions": "kinase STK39/STLK3, read-out: % Enzyme Activity (relative to DMSO controls)"}, "[8]": {"target": "T8, panel of 374 wild-type kinases (Homo sapiens, UniProt P06493)", "T8 construct": "purchased Reaction Biology Corporation"}, "[9]": {"target": "T9, panel of 374 wild-type kinases (Homo sapiens, UniProt P42685)", "T9 construct": "purchased Reaction Biology Corporation", "T9 sequence (P42685 whole entry)": "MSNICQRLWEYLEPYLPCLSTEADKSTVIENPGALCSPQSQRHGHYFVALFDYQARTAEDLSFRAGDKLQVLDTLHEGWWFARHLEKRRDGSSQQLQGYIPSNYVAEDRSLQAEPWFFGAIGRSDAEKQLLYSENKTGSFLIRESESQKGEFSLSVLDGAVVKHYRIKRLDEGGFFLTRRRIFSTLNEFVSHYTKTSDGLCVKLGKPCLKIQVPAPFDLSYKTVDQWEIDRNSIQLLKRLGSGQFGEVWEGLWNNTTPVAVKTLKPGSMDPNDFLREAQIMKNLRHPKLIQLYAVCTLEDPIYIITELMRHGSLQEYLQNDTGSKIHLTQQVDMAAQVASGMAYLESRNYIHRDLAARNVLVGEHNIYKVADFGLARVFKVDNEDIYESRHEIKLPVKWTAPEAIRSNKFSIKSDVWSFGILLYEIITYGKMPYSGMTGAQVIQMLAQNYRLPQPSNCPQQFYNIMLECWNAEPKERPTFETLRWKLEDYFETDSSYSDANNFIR", "conditions": "read-out: % Enzyme Activity (relative to DMSO controls), FRK/PTK5"}, "[10]": {"target": "T10, panel of 374 wild-type kinases (Homo sapiens, UniProt P37173)", "T10 construct": "purchased Reaction Biology Corporation", "T10 sequence (P37173 23-567)": "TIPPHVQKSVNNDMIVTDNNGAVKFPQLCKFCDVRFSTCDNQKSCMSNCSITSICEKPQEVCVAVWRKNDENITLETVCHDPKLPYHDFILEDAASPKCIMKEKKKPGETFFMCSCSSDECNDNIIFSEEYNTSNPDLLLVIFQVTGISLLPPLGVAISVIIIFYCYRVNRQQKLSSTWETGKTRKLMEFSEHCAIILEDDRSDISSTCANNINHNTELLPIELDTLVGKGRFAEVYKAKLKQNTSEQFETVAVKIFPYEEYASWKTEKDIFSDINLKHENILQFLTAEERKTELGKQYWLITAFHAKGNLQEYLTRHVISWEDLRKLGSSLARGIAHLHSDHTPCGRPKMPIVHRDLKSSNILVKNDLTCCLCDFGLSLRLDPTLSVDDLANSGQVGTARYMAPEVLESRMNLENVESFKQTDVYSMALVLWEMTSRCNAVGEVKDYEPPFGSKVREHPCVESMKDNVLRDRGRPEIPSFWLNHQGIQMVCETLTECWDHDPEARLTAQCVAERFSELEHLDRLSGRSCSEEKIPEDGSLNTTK", "conditions": "read-out: % Enzyme Activity (relative to DMSO controls), kinase TGFBR2"}, "[11]": {"target": "T11, panel of 374 wild-type kinases (Homo sapiens, UniProt Q7KZI7)", "T11 construct": "purchased Reaction Biology Corporation", "T11 sequence (Q7KZI7 whole entry)": "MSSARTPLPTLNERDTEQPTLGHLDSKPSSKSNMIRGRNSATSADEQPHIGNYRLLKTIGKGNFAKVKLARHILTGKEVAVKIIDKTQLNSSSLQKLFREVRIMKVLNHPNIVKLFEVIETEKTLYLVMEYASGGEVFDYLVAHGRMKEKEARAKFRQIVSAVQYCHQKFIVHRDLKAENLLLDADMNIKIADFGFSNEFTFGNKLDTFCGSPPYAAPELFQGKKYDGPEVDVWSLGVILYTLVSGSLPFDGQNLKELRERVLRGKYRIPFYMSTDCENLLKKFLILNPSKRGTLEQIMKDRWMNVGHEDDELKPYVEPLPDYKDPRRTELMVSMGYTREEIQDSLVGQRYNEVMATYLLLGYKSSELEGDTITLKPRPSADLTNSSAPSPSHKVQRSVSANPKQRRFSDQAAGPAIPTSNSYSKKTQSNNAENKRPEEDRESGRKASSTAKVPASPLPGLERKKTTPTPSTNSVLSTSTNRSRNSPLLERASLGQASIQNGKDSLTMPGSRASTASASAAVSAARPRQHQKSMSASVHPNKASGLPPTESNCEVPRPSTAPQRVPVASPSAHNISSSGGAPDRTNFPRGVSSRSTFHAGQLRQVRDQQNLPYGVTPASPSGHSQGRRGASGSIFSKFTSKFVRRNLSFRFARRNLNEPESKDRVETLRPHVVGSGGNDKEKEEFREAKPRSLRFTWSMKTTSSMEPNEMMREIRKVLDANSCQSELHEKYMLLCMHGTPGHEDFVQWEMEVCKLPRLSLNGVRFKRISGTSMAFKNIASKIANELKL", "conditions": "read-out: % Enzyme Activity (relative to DMSO controls), MARK2/PAR-1Ba"}, "[12]": {"target": "T12, panel of 374 wild-type kinases (Homo sapiens, UniProt Q9NRH2)", "T12 construct": "purchased Reaction Biology Corporation", "T12 sequence (Q9NRH2 1-765)": "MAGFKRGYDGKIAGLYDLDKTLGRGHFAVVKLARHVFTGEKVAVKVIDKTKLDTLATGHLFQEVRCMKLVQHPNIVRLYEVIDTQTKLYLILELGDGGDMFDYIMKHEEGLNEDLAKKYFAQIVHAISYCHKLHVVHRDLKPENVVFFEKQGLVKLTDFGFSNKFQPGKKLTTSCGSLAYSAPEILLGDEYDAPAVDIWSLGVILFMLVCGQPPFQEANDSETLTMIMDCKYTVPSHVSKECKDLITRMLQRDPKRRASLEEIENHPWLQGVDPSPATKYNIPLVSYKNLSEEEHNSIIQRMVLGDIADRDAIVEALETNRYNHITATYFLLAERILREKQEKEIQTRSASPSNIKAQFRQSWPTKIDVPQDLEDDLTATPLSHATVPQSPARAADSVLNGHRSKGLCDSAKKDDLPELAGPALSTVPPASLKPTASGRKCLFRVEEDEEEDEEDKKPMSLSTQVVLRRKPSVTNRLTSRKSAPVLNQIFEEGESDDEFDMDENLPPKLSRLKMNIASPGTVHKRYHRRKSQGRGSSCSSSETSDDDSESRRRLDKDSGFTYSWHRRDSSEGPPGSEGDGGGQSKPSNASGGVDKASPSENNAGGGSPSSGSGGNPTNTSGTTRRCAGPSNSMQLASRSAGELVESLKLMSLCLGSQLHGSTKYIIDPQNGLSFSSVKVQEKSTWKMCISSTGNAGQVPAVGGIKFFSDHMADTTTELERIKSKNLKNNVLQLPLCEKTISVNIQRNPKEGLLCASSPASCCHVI", "conditions": "read-out: % Enzyme Activity (relative to DMSO controls), kinase SNRK"}, "[13]": {"target": "T13, panel of 374 wild-type kinases (Homo sapiens, UniProt Q15375)", "T13 construct": "purchased Reaction Biology Corporation", "T13 sequence (Q15375 28-998)": "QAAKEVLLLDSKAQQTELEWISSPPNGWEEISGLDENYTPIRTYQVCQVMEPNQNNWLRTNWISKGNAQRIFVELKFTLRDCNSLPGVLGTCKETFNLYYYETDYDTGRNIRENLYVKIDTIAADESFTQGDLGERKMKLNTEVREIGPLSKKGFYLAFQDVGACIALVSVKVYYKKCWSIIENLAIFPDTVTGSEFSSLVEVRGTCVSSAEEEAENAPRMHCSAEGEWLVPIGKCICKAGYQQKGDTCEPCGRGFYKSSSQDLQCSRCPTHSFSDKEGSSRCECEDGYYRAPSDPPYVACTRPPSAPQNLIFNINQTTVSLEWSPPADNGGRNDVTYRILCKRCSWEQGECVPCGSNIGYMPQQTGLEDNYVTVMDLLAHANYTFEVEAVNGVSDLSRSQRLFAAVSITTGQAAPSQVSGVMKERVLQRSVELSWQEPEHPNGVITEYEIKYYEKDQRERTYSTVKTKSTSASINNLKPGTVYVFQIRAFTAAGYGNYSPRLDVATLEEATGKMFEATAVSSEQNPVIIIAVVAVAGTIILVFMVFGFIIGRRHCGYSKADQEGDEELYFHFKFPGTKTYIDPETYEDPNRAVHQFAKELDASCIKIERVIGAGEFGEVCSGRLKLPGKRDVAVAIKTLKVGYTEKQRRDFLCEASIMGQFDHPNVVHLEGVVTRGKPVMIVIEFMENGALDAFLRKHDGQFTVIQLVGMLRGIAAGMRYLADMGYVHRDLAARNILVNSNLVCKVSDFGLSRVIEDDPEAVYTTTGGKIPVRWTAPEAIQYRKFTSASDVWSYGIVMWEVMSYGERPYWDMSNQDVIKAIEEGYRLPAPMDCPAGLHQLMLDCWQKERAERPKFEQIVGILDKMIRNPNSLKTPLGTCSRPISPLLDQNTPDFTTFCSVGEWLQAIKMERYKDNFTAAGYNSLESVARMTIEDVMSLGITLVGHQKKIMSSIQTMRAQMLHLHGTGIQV", "conditions": "read-out: % Enzyme Activity (relative to DMSO controls), EPHA7"}, "[14]": {"conditions": "read-out: % Enzyme Activity (relative to DMSO controls), CDK1/cyclin A"}, "[15]": {"conditions": "read-out: % Enzyme Activity (relative to DMSO controls), CDK1/cyclin B"}, "[16]": {"conditions": "read-out: % Enzyme Activity (relative to DMSO controls), CDK1/cyclin E"}}, "note": "Like-named read-outs stand apart in the source and are kept apart here."}
{"compound": "O=C(Nc1cnn(-c2csc(C(=O)NC3COC3)c2)c1)Nc1ccccc1Cl", "note": "[Compound 17, 4-(4-(3-(2-chlorophenyl)ureido)-1H-pyrazol-1-yl)-N-(oxetan-3-yl)thiophene-2-carboxamide]", "values": [{"measurement": "remaining activity at 5 µM", "setting": "[1]", "value": 53.2, "unit": "%"}, {"measurement": "remaining activity at 5 µM", "setting": "[2]", "value": 97.8, "unit": "%"}, {"measurement": "remaining activity at 5 µM", "setting": "[3]", "value": 124, "unit": "%"}, {"measurement": "remaining activity at 5 µM", "setting": "[4]", "value": 109, "unit": "%"}, {"measurement": "remaining activity at 5 µM", "setting": "[5]", "value": 93.3, "unit": "%"}, {"measurement": "remaining activity at 5 µM", "setting": "[6]", "value": 97.2, "unit": "%"}, {"measurement": "remaining activity at 5 µM", "setting": "[7]", "value": 87.5, "unit": "%"}, {"measurement": "remaining activity at 5 µM", "setting": "[8]; [14]", "value": 95.5, "unit": "%"}, {"measurement": "remaining activity at 5 µM", "setting": "[8]; [15]", "value": 92.6, "unit": "%"}, {"measurement": "remaining activity at 5 µM", "setting": "[8]; [16]", "value": 94.7, "unit": "%"}, {"measurement": "remaining activity at 5 µM", "setting": "[9]", "value": 97.4, "unit": "%"}, {"measurement": "remaining activity at 5 µM", "setting": "[10]", "value": 113, "unit": "%"}, {"measurement": "remaining activity at 5 µM", "setting": "[11]", "value": 104, "unit": "%"}, {"measurement": "remaining activity at 5 µM", "setting": "[12]", "value": 96.8, "unit": "%"}, {"measurement": "remaining activity at 5 µM", "setting": "[13]", "value": 103, "unit": "%"}]}
{"compound": "Cc1sc(C(=O)NC2COC2)cc1-n1cc(NC(=O)Nc2c(F)cccc2Cl)cn1", "note": "[Compound 27, 4-(4-(3-(2-chloro-6-fluorophenyl)ureido)-1H-pyrazol-1-yl)-5-methyl-N-(oxetan-3-yl)thiophene-2-carboxamide]", "values": [{"measurement": "remaining activity at 10 µM", "setting": "[1]; 10 uM", "value": 94.5, "unit": "%"}, {"measurement": "remaining activity at 10 µM", "setting": "[2]; 10 uM", "value": 95.2, "unit": "%"}, {"measurement": "remaining activity at 10 µM", "setting": "[3]; 10 uM", "value": 78.5, "unit": "%"}, {"measurement": "remaining activity at 10 µM", "setting": "[4]; 10 uM", "value": 105, "unit": "%"}, {"measurement": "remaining activity at 10 µM", "setting": "[5]; 10 uM", "value": 105, "unit": "%"}, {"measurement": "remaining activity at 10 µM", "setting": "[6]; 10 uM", "value": 113, "unit": "%"}, {"measurement": "remaining activity at 10 µM", "setting": "[7]; 10 uM", "value": 64.5, "unit": "%"}, {"measurement": "remaining activity at 10 µM", "setting": "[8]; [14]", "value": 105, "unit": "%"}, {"measurement": "remaining activity at 10 µM", "setting": "[8]; [15]", "value": 92.7, "unit": "%"}, {"measurement": "remaining activity at 10 µM", "setting": "[8]; [16]", "value": 100, "unit": "%"}, {"measurement": "remaining activity at 10 µM", "setting": "[9]; 10 uM", "value": 87.3, "unit": "%"}, {"measurement": "remaining activity at 10 µM", "setting": "[10]; 10 uM", "value": 86.8, "unit": "%"}, {"measurement": "remaining activity at 10 µM", "setting": "[11]; 10 uM", "value": 99.8, "unit": "%"}, {"measurement": "remaining activity at 10 µM", "setting": "[12]; 10 uM", "value": 102, "unit": "%"}, {"measurement": "remaining activity at 10 µM", "setting": "[13]; 10 uM", "value": 98.6, "unit": "%"}]}
{"compound": "O=C(Nc1cnn(-c2csc(C(=O)NC3COC3)c2)c1)Nc1c(F)cccc1Cl", "note": "[Compound 25, 4-(4-(3-(2-chloro-6-fluorophenyl)ureido)-1H-pyrazol-1-yl)-N-(oxetan-3-yl)thiophene-2-carboxamide]", "values": [{"measurement": "remaining activity at 5 µM", "setting": "[1]", "value": 84.3, "unit": "%"}, {"measurement": "remaining activity at 5 µM", "setting": "[2]", "value": 91.5, "unit": "%"}, {"measurement": "remaining activity at 5 µM", "setting": "[3]", "value": 82, "unit": "%"}, {"measurement": "remaining activity at 5 µM", "setting": "[4]", "value": 81.1, "unit": "%"}, {"measurement": "remaining activity at 5 µM", "setting": "[5]", "value": 99.9, "unit": "%"}, {"measurement": "remaining activity at 5 µM", "setting": "[6]", "value": 82.3, "unit": "%"}, {"measurement": "remaining activity at 5 µM", "setting": "[7]", "value": 82.3, "unit": "%"}, {"measurement": "remaining activity at 5 µM", "setting": "[8]; [14]", "value": 86.3, "unit": "%"}, {"measurement": "remaining activity at 5 µM", "setting": "[8]; [15]", "value": 105, "unit": "%"}, {"measurement": "remaining activity at 5 µM", "setting": "[8]; [16]", "value": 98.4, "unit": "%"}, {"measurement": "remaining activity at 5 µM", "setting": "[9]", "value": 95.6, "unit": "%"}, {"measurement": "remaining activity at 5 µM", "setting": "[10]", "value": 82.6, "unit": "%"}, {"measurement": "remaining activity at 5 µM", "setting": "[11]", "value": 90.7, "unit": "%"}, {"measurement": "remaining activity at 5 µM", "setting": "[12]", "value": 98.8, "unit": "%"}, {"measurement": "remaining activity at 5 µM", "setting": "[13]", "value": 91.2, "unit": "%"}]}
